Reference: patent US10576085B2, “Substituted aminopurine compounds, compositions thereof, and methods of treatment therewith” (Signal Pharmaceuticals, LLC, priority 2016, dated 2020)

System: cancer cell lines of Table 2
Test: Multiplexed cytotoxicity assay: apoptosis (activated caspase-3; Cal_X2, Cal_X5, Max_Fold_Change)
Format: cell-based
Procedure: Cells are grown in RPMI1640, 10% FBS, 2 mM L-alanyl-L-Glutamine, 1 mM Na pyruvate or a special medium in a humidified atmosphere of 5% CO2 at 37° C. Cells are seeded into 384-well plates and incubated in a humidified atmosphere of 5% CO2 at 37° C. Compounds are added 24 h post cell seeding. At the same time, a time zero untreated cell plate is generated. After a 72 hour incubation period, cells are fixed and stained with fluorescently labeled antibodies and nuclear dye to allow visualization of nuclei, apoptotic cells and mitotic cells. Apoptotic cells are detected using an anti-active caspase-3 antibody. Mitotic cells are detected using an anti phospho-histone-3 antibody. Compounds are serially diluted 3.16-fold and assayed over 10 concentrations in a final assay concentration of 0.1% DMSO from the highest test concentration of 10 μM. Automated fluorescence microscopy was carried out using a Molecular Devices ImageXpress Micro XL high-content imager, and images are collected with a 4× objective.
The activated caspase-3 marker labels cells from early to late stage apoptosis. Concentrations of test compound that cause a 5-fold induction in the caspase-3 signal (Cal_X5) indicate significant apoptosis induction. The maximal induction of caspase 3 by compound in comparison with DMSO control is reported as Max_Fold_Change.
In Another Experiment, Cells were Grown in RPMI1640, 10% FBS, 2 mM L-alanyl-L-Glutamine, 1 mM Na pyruvate or a special medium in a humidified atmosphere of 5% CO2 at 37° C. Cells were seeded into 384-well plates and incubated in a humidified atmosphere of 5% CO2 at 37° C. Compounds were added 24 h post cell seeding. At the same time, a time zero untreated cell plate was generated. After a 72 hour incubation period, cells were fixed and stained with fluorescently labeled antibodies and nuclear dye to allow visualization of nuclei, apoptotic cells and mitotic cells. Apoptotic cells were detected using an anti-active caspase-3 antibody. Mitotic cells were detected using an anti phospho-histone-3 antibody. Compounds were serially diluted 3.16-fold and assayed over 10 concentrations in a final assay concentration of 0.1% DMSO from the highest test concentration of 10 μM. Automated fluorescence microscopy was carried out using a Molecular Devices ImageXpress Micro XL high-content imager, and images were collected with a 4× objective.
The activated caspase-3 marker labels cells from early to late stage apoptosis. Concentrations of test compound that cause a 2-fold (Cal-X2) or 5-fold induction in the caspase-3 signal (Cal_X5) indicated significant apoptosis induction. The maximal induction of caspase 3 by compound in comparison with DMSO control was reported as Max_Fold_Change.

C[C@]1(C(N)=O)CC[C@@H](n2c(Nc3c(Cl)cc(Cl)cc3Cl)nc3cnc(N[C@@H]4CCOC[C@H]4F)nc32)CC1 [Compound 1, cis-4-[2-{[(3S,4R)-3-fluorooxan-4-yl]amino}-8-(2,4,6-trichloroanilino)-9H-purin-9-yl]-1-methyl cyclohexane-1-carboxamide]
CalX2 (639V, Bladder): 0.0841 µM
CalX5 (639V, Bladder): 0.465 µM
Max fold change (639V, Bladder): 6.33
CalX2 (647V, Bladder): 2.7413 µM
CalX5 (647V, Bladder): 4.45 µM
Max fold change (647V, Bladder): 19.29
CalX2 (769P, Kidney): 0.2023 µM
CalX5 (769P, Kidney): 5.11 µM
Max fold change (769P, Kidney): 5.67
CalX2 (786O, Kidney): 10 µM
CalX5 (786O, Kidney): 10 µM
Max fold change (786O, Kidney): 0.83
CalX2 (A7, Skin, Melanoma): 5.0814 µM
CalX5 (A7, Skin, Melanoma): 9.4 µM
Max fold change (A7, Skin, Melanoma): 5.51
CalX2 (A101D, Skin, Melanoma): 0.4207 µM
CalX5 (A101D, Skin, Melanoma): 3.71 µM
Max fold change (A101D, Skin, Melanoma): 7.93
CalX2 (A375, Skin, Melanoma): 0.0673 µM
CalX5 (A375, Skin, Melanoma): 0.0827 µM
Max fold change (A375, Skin, Melanoma): 103.79
CalX2 (A498, Kidney): 0.5562 µM
CalX5 (A498, Kidney): 10 µM
Max fold change (A498, Kidney): 4.72
CalX2 (A704, Kidney): 10 µM
CalX5 (A704, Kidney): 10 µM
Max fold change (A704, Kidney): 0.96
CalX2 (A2058, Skin, Melanoma): 0.065 µM
CalX5 (A2058, Skin, Melanoma): 0.204 µM
Max fold change (A2058, Skin, Melanoma): 11.68
CalX2 (ACHN, Kidney): 0.78 µM
CalX5 (ACHN, Kidney): 10 µM
Max fold change (ACHN, Kidney): 2.97
CalX2 (AU565, Breast): 3.8749 µM
CalX5 (AU565, Breast): 7.14 µM
Max fold change (AU565, Breast): 14.18
CalX2 (BC1, Lymphoma): 5.1005 µM
CalX5 (BC1, Lymphoma): 6.54 µM
Max fold change (BC1, Lymphoma): 8.72
CalX2 (BCP1, Lymphoma): 4.8663 µM
CalX5 (BCP1, Lymphoma): 7.36 µM
Max fold change (BCP1, Lymphoma): 6.56
CalX2 (BFTC905, Bladder): 0.0179 µM
CalX5 (BFTC905, Bladder): 0.0414 µM
Max fold change (BFTC905, Bladder): 45.3
CalX2 (BT20, Breast): 10 µM
CalX5 (BT20, Breast): 10 µM
Max fold change (BT20, Breast): 1.81
CalX2 (BT474, Breast): 10 µM
CalX5 (BT474, Breast): 10 µM
Max fold change (BT474, Breast): 0.94
CalX2 (BV173, Leukemia): 0.4959 µM
CalX5 (BV173, Leukemia): 10 µM
Max fold change (BV173, Leukemia): 2.91
CalX2 (C32, Skin, Melanoma): 0.0451 µM
CalX5 (C32, Skin, Melanoma): 0.0778 µM
Max fold change (C32, Skin, Melanoma): 110.9
CalX2 (C32TG, Skin, Melanoma): 0.0608 µM
CalX5 (C32TG, Skin, Melanoma): 0.117 µM
Max fold change (C32TG, Skin, Melanoma): 42.82
CalX2 (CA46, Lymphoma): 3.2395 µM
CalX5 (CA46, Lymphoma): 8.08 µM
Max fold change (CA46, Lymphoma): 9.46
CalX2 (CAKI1, Kidney): 0.2015 µM
CalX5 (CAKI1, Kidney): 10 µM
Max fold change (CAKI1, Kidney): 4.12
CalX2 (CAKI2, Kidney): 0.1631 µM
CalX5 (CAKI2, Kidney): 0.449 µM
Max fold change (CAKI2, Kidney): 6.26
CalX2 (CCRFCEM, Leukemia): 3.4279 µM
CalX5 (CCRFCEM, Leukemia): 6.95 µM
Max fold change (CCRFCEM, Leukemia): 12.74
CalX2 (CEMC1, Leukemia): 4.1828 µM
CalX5 (CEMC1, Leukemia): 5.22 µM
Max fold change (CEMC1, Leukemia): 11.27
CalX2 (CHL1, Skin, Melanoma): 1.2376 µM
CalX5 (CHL1, Skin, Melanoma): 10 µM
Max fold change (CHL1, Skin, Melanoma): 3.46
CalX2 (CMLT1, Leukemia): 0.0948 µM
CalX5 (CMLT1, Leukemia): 10 µM
Max fold change (CMLT1, Leukemia): 4.85
CalX2 (COLO829, Skin, Melanoma): 0.0421 µM
CalX5 (COLO829, Skin, Melanoma): 0.125 µM
Max fold change (COLO829, Skin, Melanoma): 24.28
CalX2 (CROAP2, Lymphoma): 2.9603 µM
CalX5 (CROAP2, Lymphoma): 4.2 µM
Max fold change (CROAP2, Lymphoma): 50.79
CalX2 (D283MED, CNS, Medulloblastoma): 8.3456 µM
CalX5 (D283MED, CNS, Medulloblastoma): 10 µM
Max fold change (D283MED, CNS, Medulloblastoma): 2.23
CalX2 (D341MED, CNS, Medulloblastoma): 7.7855 µM
CalX5 (D341MED, CNS, Medulloblastoma): 10 µM
Max fold change (D341MED, CNS, Medulloblastoma): 2.14
CalX2 (DAOY, CNS, Medulloblastoma): 3.2773 µM
CalX5 (DAOY, CNS, Medulloblastoma): 5.22 µM
Max fold change (DAOY, CNS, Medulloblastoma): 16.68
CalX2 (DAUDI, Lymphoma): 3.9392 µM
CalX5 (DAUDI, Lymphoma): 5.33 µM
Max fold change (DAUDI, Lymphoma): 10.08
CalX2 (DB, Lymphoma): 6.1153 µM
CalX5 (DB, Lymphoma): 6.5 µM
Max fold change (DB, Lymphoma): 7.11
CalX2 (DOHH2, Lymphoma): 2.4833 µM
CalX5 (DOHH2, Lymphoma): 3.99 µM
Max fold change (DOHH2, Lymphoma): 20.41
CalX2 (EB2, Lymphoma): 5.7381 µM
CalX5 (EB2, Lymphoma): 10 µM
Max fold change (EB2, Lymphoma): 4.16
CalX2 (EB3, Lymphoma): 6.1469 µM
CalX5 (EB3, Lymphoma): 7.66 µM
Max fold change (EB3, Lymphoma): 5.5
CalX2 (EM2, Leukemia): 10 µM
CalX5 (EM2, Leukemia): 10 µM
Max fold change (EM2, Leukemia): 1.55
CalX2 (G361, Skin, Melanoma): 0.0428 µM
CalX5 (G361, Skin, Melanoma): 0.12 µM
Max fold change (G361, Skin, Melanoma): 24.48
CalX2 (G401, Kidney): 0.0717 µM
CalX5 (G401, Kidney): 0.179 µM
Max fold change (G401, Kidney): 30.87
CalX2 (G402, Kidney): 0.0162 µM
CalX5 (G402, Kidney): 0.637 µM
Max fold change (G402, Kidney): 7.34
CalX2 (GA10, Lymphoma): 0.6477 µM
CalX5 (GA10, Lymphoma): 1.94 µM
Max fold change (GA10, Lymphoma): 6.49
CalX2 (H9, Lymphoma): 0.0222 µM
CalX5 (H9, Lymphoma): 0.4 µM
Max fold change (H9, Lymphoma): 7.33
CalX2 (HEL9217, Leukemia): 3.2991 µM
CalX5 (HEL9217, Leukemia): 6.57 µM
Max fold change (HEL9217, Leukemia): 6.23
CalX2 (HEPG2, Liver): 0.0041 µM
CalX5 (HEPG2, Liver): 0.0108 µM
Max fold change (HEPG2, Liver): 62.47
CalX2 (HLE, Liver): 0.8174 µM
CalX5 (HLE, Liver): 10 µM
Max fold change (HLE, Liver): 2.5
CalX2 (HLF, Liver): 10 µM
CalX5 (HLF, Liver): 10 µM
Max fold change (HLF, Liver): 1.95
CalX2 (HMCB, Skin, Melanoma): 10 µM
CalX5 (HMCB, Skin, Melanoma): 10 µM
Max fold change (HMCB, Skin, Melanoma): 1.8
CalX2 (HS294T, Skin, Melanoma): 0.154 µM
CalX5 (HS294T, Skin, Melanoma): 2.15 µM
Max fold change (HS294T, Skin, Melanoma): 5.74
CalX2 (HS445, Lymphoma): 4.9128 µM
CalX5 (HS445, Lymphoma): 7.7 µM
Max fold change (HS445, Lymphoma): 5.65
